# From PubChem BioAssay (NCI)
#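 Values below derive from 48-hour exposures of cells grown in 96-well plates, with endpoints linearly interpolated between the two concentrations bracketing the appropriate inhibition level. GI50 marks 50% less growth. At the TGI there is no net growth.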
# Experiments:
# Test in all cases: NCI anticancer screen, dose series, 48 h
# TK-10 renal = test system: TK-10 renal
# IGROV1 ovarian = test system: IGROV1 ovarian
# PC-3 prostate = test system: PC-3 prostate
# MDA-MB-231 breast = test system: MDA-MB-231 breast
# K-562 leukemia = test system: K-562 leukemia
# A498 renal = test system: A498 renal
# MOLT-4 leukemia = test system: MOLT-4 leukemia
# HL-60(TB) leukemia = test system: HL-60(TB) leukemia
# NCI-H460 lung = test system: NCI-H460 lung
# OVCAR-3 ovarian = test system: OVCAR-3 ovarian
SMILES,GI50 (TK-10 renal) [µM],TGI (TK-10 renal) [µM],GI50 (IGROV1 ovarian) [µM],TGI (IGROV1 ovarian) [µM],GI50 (PC-3 prostate) [µM],TGI (PC-3 prostate) [µM],GI50 (MDA-MB-231 breast) [µM],TGI (MDA-MB-231 breast) [µM],GI50 (K-562 leukemia) [µM],TGI (K-562 leukemia) [µM],GI50 (A498 renal) [µM],TGI (A498 renal) [µM],GI50 (MOLT-4 leukemia) [µM],TGI (MOLT-4 leukemia) [µM],GI50 (HL-60(TB) leukemia) [µM],TGI (HL-60(TB) leukemia) [µM],GI50 (NCI-H460 lung) [µM],TGI (NCI-H460 lung) [µM],GI50 (OVCAR-3 ovarian) [µM],TGI (OVCAR-3 ovarian) [µM]
O=C1Nc2c(C(F)(F)F)cccc2[C@]1(c1ccc(O)cc1)c1ccc(OC(F)(F)F)cc1,11.5,25.3,9.42,23.4,4.31,21.3,13,26.2,8.57,> 100,14.7,30,5.34,23.6,13.7,32.5,8.43,28.8,3.95,16.3
CC(C)(CC(=O)Nc1ccccc1)C(=O)O,–,> 100,–,> 100,–,> 100,–,> 100,–,> 100,–,> 100,–,> 100,–,> 100,–,> 100,–,> 100
Oc1ccc(CN2CCC(N3CCCCC3)CC2)c2cccnc12,78.2,> 100,23.4,> 100,7.15,> 100,22.4,> 100,2.23,> 100,> 100,> 100,19.9,> 100,6.86,46.7,4.01,> 100,27.5,> 100
CCOc1cc2c(Cl)ncnc2c(OCC)c1OCC,26.9,> 76.2,1.6,3.53,3.2,11.4,11.9,24.9,2.72,12.5,6.48,19.1,2.87,10.4,2.35,15.5,5.21,17.7,4,10.8
COc1cc(C2=C(c3ccccc3)COC2=O)cc(OC)c1OC,1.37,> 30.6,5.82,> 56.5,1.35,> 100,3.2,> 100,0.289,> 100,6.87,> 66.1,4.18,> 100,0.409,2.14,0.966,56.4,0.309,2.1
COC1/C=C\C=C(/C)C(=O)NC2=CC(=O)C(=O)C(=C2O)CC(C)CC(OC)C(O)C(C)/C=C(\C)C1OC(N)=O (stereo not drawn),–,> 57.5,–,> 100,–,> 37.7,–,4.22,–,> 100,–,> 100,–,> 52.3,–,> 35.5,–,> 100,–,19.7
O=C(/C(Br)=C/c1ccccc1)c1ccccc1,3.38,14.6,1.66,4.68,3.11,10.5,2.44,5.12,2.23,9.28,15.5,30,2.23,6.95,2.22,6.47,17.8,38,2.2,5.59
COc1ccc(-c2cc(=O)c3ccc(O)cc3o2)cc1OC,–,> 100,–,> 100,–,> 100,–,> 100,–,> 100,–,> 100,–,> 100,–,> 100,–,> 100,–,> 100
COc1ccc(/C=C/c2nccc3ccccc23)cc1OC,–,> 10,–,> 10,–,> 10,–,> 10,–,> 10,–,> 10,–,> 10,–,> 10,–,> 10,–,> 10
Cn1c2ccccc2c2c(-c3ccccc3)[n+]3ccncc3nc21,> 100,> 100,70.8,> 100,> 100,> 100,> 100,> 100,> 100,> 100,> 100,> 100,> 100,> 100,> 100,> 100,> 100,> 100,> 100,> 100
CC[CH2][Sn]([CH2]CC)([O]C(=O)c1cccnc1SC)[O][Sn]([CH2]CC)([CH2]CC)[O]C(=O)c1cccnc1SC,0.409,1.09,1.26,3.79,2.3,6.48,1.34,2.76,0.0756,4.32,0.246,0.629,0.149,> 16.6,0.26,4.24,1.99,4.94,0.583,1.85
CC(C)c1nc(CN(C)C(=O)N[C@H](C(=O)N[C@@H](Cc2ccccc2)C[C@H](O)[C@H](Cc2ccccc2)NC(=O)OCc2cncs2)C(C)C)cs1,36.6,> 92.6,36.4,> 100,20.8,79.2,18,35.1,26.6,92.1,19.1,43.2,7.54,27.5,12.2,36.9,17.5,55.7,21.5,> 56.5
N#Cc1ccc(O)c(C2=NCC(c3cccc(Oc4ccccc4)c3)O2)c1 (stereo not drawn),–,–,0.787,12.1,0.938,41.6,1.28,12,0.394,> 100,2.06,22.3,1.67,> 100,0.852,9.29,0.434,10.2,0.432,10.8
